Measurements reported in US11046696B2, “Fused pyrimidine compound or salt thereof” (TAIHO PHARMACEUTICAL CO., LTD., priority 2016, dated 2021).

Experiment: Evaluation of stability in liver microsome
Conditions: mouse liver microsome, 1 μM, 37° C. for 30 minutes

Row | Remaining (%) | SMILES
1 | 85 | COCc1ccc(NC(=O)c2c(-c3ccc(CO)nc3)n(C3(C)CC3)c3ncnc(N)c23)cc1 [Example 179, 4-amino-6-(6-(hydroxymethyl)pyridin-3-yl)-N-(4-(methoxymethyl)phenyl)-7-(1-methylcyclopropyl)-7H-pyrrolo[2,3-d]pyrimidine-5-carboxamide]
2 | 70 | COCc1ccc(NC(=O)c2c(C#Cc3cncc(C#N)c3)n(C3(C)CC3)c3ncnc(N)c23)cc1 [Example 195, 4-amino-6-((5-cyanopyridin-3-yl)ethynyl)-N-(4-(methoxymethyl)phenyl)-7-(1-methylcyclopropyl)-7H-pyrrolo[2,3-d]pyrimidine-5-carboxamide]
3 | 56 | COCc1ccc(NC(=O)c2c(Br)n(C3(C)CC3)c3ncnc(N)c23)cc1 [Example 55, 4-amino-6-bromo-N-[4-(methoxymethyl)phenyl]-7-(1-methylcyclopropyl)-7H-pyrrolo[2,3-d]pyrimidine-5-carboxamide]
4 | 83 | COCc1ccc(NC(=O)c2c(C(C)O)n(C3(C)CC3)c3ncnc(N)c23)cc1 (stereo not drawn) [Example 204, 4-amino-6-(1-hydroxyethyl)-N-(4-(methoxymethyl)phenyl)-7-(1-methylcyclopropyl)-7H-pyrrolo[2,3-d]pyrimidine-5-carboxamide]
5 | 68 | COCc1ccc(NC(=O)c2c(C#Cc3ccc[nH]3)n(C3(C)CC3)c3ncnc(N)c23)cc1 [Example 161, 6-((1H-pyrrol-2-yl)ethynyl)-4-amino-N-(4-(methoxymethyl)phenyl)-7-(1-methylcyclopropyl)-7H-pyrrolo[2,3-d]pyrimidine-5-carboxamide]
6 | 64 | COCc1ccc(NC(=O)c2c(C#Cc3ccc(N)nc3)n(C3(C)CC3)c3ncnc(N)c23)cc1 [Example 155, 4-amino-6-((6-aminopyridin-3-yl)ethynyl)-N-(4-(methoxymethyl)phenyl)-7-(1-methylcyclopropyl)-7H-pyrrolo[2,3-d]pyrimidine-5-carboxamide]
7 | 65 | COCc1ccc(NC(=O)c2c(C#Cc3cnc4cccnn34)n(C3(C)CC3)c3ncnc(N)c23)cc1 [Example 91, 4-amino-6-(imidazo[1,2-b]pyridazin-3-ylethynyl)-N-[4-(methoxymethyl)phenyl]-7-(1-methylcyclopropyl)-7H-pyrrolo[2,3-d]pyrimidine-5-carboxamide]
8 | 57 | COCc1ccc(NC(=O)c2c(C#CCN(C)C)n(C3(C)CC3)c3ncnc(N)c23)cc1 [Example 198, 4-amino-6-(3-(dimethylamino)prop-1-yn-1-yl)-N-(4-(methoxymethyl)phenyl)-7-(1-methylcyclopropyl)-7H-pyrrolo[2,3-d]pyrimidine-5-carboxamide]
9 | 84 | COCc1ccc(NC(=O)c2c(C#Cc3cccc(F)c3)n(C3(C)CC3)c3ncnc(N)c23)cc1 [Example 130, 4-amino-6-((3-fluorophenyl)ethynyl)-N-(4-(methoxymethyl)phenyl)-7-(1-methylcyclopropyl)-7H-pyrrolo[2,3-d]pyrimidine-5-carboxamide]
10 | 68 | COCc1ccc(NC(=O)c2c(-c3ccc(NC(C)=O)nc3)n(C3(C)CC3)c3ncnc(N)c23)cc1 [Example 147, 6-(6-acetamidopyridin-3-yl)-4-amino-N-(4-(methoxymethyl)phenyl)-7-(1-methylcyclopropyl)-7H-pyrrolo[2,3-d]pyrimidine-5-carboxamide]
11 | 78 | COCc1ccc(NC(=O)c2c(-c3cnn(C)c3)n(C3(C)CC3)c3ncnc(N)c23)cc1 [Example 150, 4-amino-N-(4-(methoxymethyl)phenyl)-6-(1-methyl-1H-pyrazol-4-yl)-7-(1-methylcyclopropyl)-7H-pyrrolo[2,3-d]pyrimidine-5-carboxamide]
12 | 50 | COCc1ccc(NC(=O)c2c(-c3ccccc3)n(C3(C)CC3)c3ncnc(N)c23)cc1 [Example 154, 4-amino-N-(4-(methoxymethyl)phenyl)-7-(1-methylcyclopropyl)-6-phenyl-7H-pyrrolo[2,3-d]pyrimidine-5-carboxamide]
13 | 60 | COCc1ccc(NC(=O)c2c(C#Cc3cccnc3)n(C3(C)CC3)c3ncnc(N)c23)cc1 [Example 94, 4-amino-N-[4-(methoxymethyl)phenyl]-7-(1-methylcyclopropyl)-6-(pyridin-3-ylethynyl)-7H-pyrrolo[2,3-d]pyrimidine-5-carboxamide]
14 | 79 | COCc1ccc(NC(=O)c2c(C#Cc3ccccc3OC)n(C3(C)CC3)c3ncnc(N)c23)cc1 [Example 113, 4-amino-N-(4-(methoxymethyl)phenyl)-6-((2-methoxyphenyl)ethynyl)-7-(1-methylcyclopropyl)-7H-pyrrolo[2,3-d]pyrimidine-5-carboxamide]
15 | 72 | COCc1ccc(NC(=O)c2c(C#Cc3ccc(Cl)nc3)n(C3(C)CC3)c3ncnc(N)c23)cc1 [Example 120, 4-amino-6-((6-chloropyridin-3-yl)ethynyl)-N-(4-(methoxymethyl)phenyl)-7-(1-methylcyclopropyl)-7H-pyrrolo[2,3-d]pyrimidine-5-carboxamide]
16 | 61 | COCc1ccc(NC(=O)c2c(-c3ccc(O)cc3)n(C3(C)CC3)c3ncnc(N)c23)cc1 [Example 148, 4-amino-6-(4-hydroxyphenyl)-N-(4-(methoxymethyl)phenyl)-7-(1-methylcyclopropyl)-7H-pyrrolo[2,3-d]pyrimidine-5-carboxamide]
17 | 51 | COCc1ccc(NC(=O)c2c(C#Cc3cncs3)n(C3(C)CC3)c3ncnc(N)c23)cc1 [Example 193, 4-amino-N-[4-(methoxymethyl)phenyl]-7-(1-methylcyclopropyl)-6-(thiazol-5-ylethynyl)-7H-pyrrolo[2,3-d]pyrimidine-5-carboxamide]

More lines, now with the values behind:

Row | SMILES | Remaining (%)
18 | COCCN(C)CC#Cc1c(C(=O)Nc2ccc(COC)cc2)c2c(N)ncnc2n1C1(C)CC1 [Example 197, 4-amino-6-(3-((2-methoxyethyl)(methyl)amino)prop-1-yn-1-yl)-N-(4-(methoxymethyl)phenyl)-7-(1-methylcyclopropyl)-7H-pyrrolo[2,3-d]pyrimidine-5-carboxamide] | 52
19 | COCc1ccc(NC(=O)c2c(C#CCC3(O)CCOCC3)n(C3(C)CC3)c3ncnc(N)c23)cc1 [Example 143, 4-amino-6-(3-(4-hydroxytetrahydro-2H-pyran-4-yl)prop-1-yn-1-yl)-N-(4-(methoxymethyl)phenyl)-7-(1-methylcyclopropyl)-7H-pyrrolo[2,3-d]pyrimidine-5-carboxamide] | 68
20 | COCc1ccc(NC(=O)c2c(C#CCC(C)(C)O)n(C3(C)CC3)c3ncnc(N)c23)cc1 [Example 86, 4-amino-6-(4-hydroxy-4-methylpent-1-yn-1-yl)-N-[4-(methoxymethyl)phenyl]-7-(1-methylcyclopropyl)-7H-pyrrolo[2,3-d]pyrimidine-5-carboxamide] | 66
21 | CCC(O)CC#Cc1c(C(=O)Nc2ccc(COC)cc2)c2c(N)ncnc2n1C1(C)CC1 (stereo not drawn) [Example 157, 4-amino-6-(4-hydroxyhex-1-yn-1-yl)-N-(4-(methoxymethyl)phenyl)-7-(1-methylcyclopropyl)-7H-pyrrolo[2,3-d]pyrimidine-5-carboxamide] | 59
22 | COCc1ccc(NC(=O)c2c(C#Cc3c(C)noc3C)n(C3(C)CC3)c3ncnc(N)c23)cc1 [Example 184, 4-amino-6-((3,5-dimethylisoxazol-4-yl)ethynyl)-N-(4-(methoxymethyl)phenyl)-7-(1-methylcyclopropyl)-7H-pyrrolo[2,3-d]pyrimidine-5-carboxamide] | 58
23 | COCc1ccc(NC(=O)c2c(C#Cc3cnc4ccoc4c3)n(C3(C)CC3)c3ncnc(N)c23)cc1 [Example 159, 4-amino-6-(furo[3,2-b]pyridin-6-ylethynyl)-N-(4-(methoxymethyl)phenyl)-7-(1-methylcyclopropyl)-7H-pyrrolo[2,3-d]pyrimidine-5-carboxamide] | 78
24 | COCc1ccc(NC(=O)c2c(C#CCN3CCCCC3)n(C3(C)CC3)c3ncnc(N)c23)cc1 [Example 105, 4-amino-N-[4-(methoxymethyl)phenyl]-7-(1-methylcyclopropyl)-6-(3-(piperidin-1-yl)prop-1-yn-1-yl)-7H-pyrrolo[2,3-d]pyrimidine-5-carboxamide] | 52
25 | COCc1ccc(NC(=O)c2c(C#CCCN3CCOCC3)n(C3(C)CC3)c3ncnc(N)c23)cc1 [Example 187, 4-amino-N-(4-(methoxymethyl)phenyl)-7-(1-methylcyclopropyl)-6-(4-morpholinobut-1-yn-1-yl)-7H-pyrrolo[2,3-d]pyrimidine-5-carboxamide] | 68
26 | COCc1ccc(NC(=O)c2c(C#CC3(O)CCOC3)n(C3(C)CC3)c3ncnc(N)c23)cc1 (stereo not drawn) [Example 177, 4-amino-6-((3-hydroxytetrahydrofuran-3-yl)ethynyl)-N-(4-(methoxymethyl)phenyl)-7-(1-methylcyclopropyl)-7H-pyrrolo[2,3-d]pyrimidine-5-carboxamide] | 72
27 | COCc1ccc(NC(=O)c2cn(C(C)(C)C(F)F)c3ncnc(N)c23)cc1 [Example 50, 4-amino-7-(1,1-difluoro-2-methylpropan-2-yl)-N-(4-(methoxymethyl)phenyl)-7H-pyrrolo[2,3-d]pyrimidine-5-carboxamide] | 53
28 | COCc1ccc(NC(=O)c2cn(C3(C(F)F)CC3)c3ncnc(N)c23)cc1 [Example 46, 4-amino-7-(1-(difluoromethyl)cyclopropyl)-N-(4-(methoxymethyl)phenyl)-7H-pyrrolo[2,3-d]pyrimidine-5-carboxamide] | 65
29 | COCc1ccc(NC(=O)c2cn(C(C)(C)C)c3ncnc(N)c23)cc1F [Example 30, 4-amino-7-(tert-butyl)-N-(3-fluoro-4-(methoxymethyl)phenyl)-7H-pyrrolo[2,3-d]pyrimidine-5-carboxamide] | 54
30 | COCc1ccc(NC(=O)c2c(C#CC3(O)CCOCC3)n(C3(C)CC3)c3ncnc(N)c23)cc1 [Example 185, 4-amino-6-((4-hydroxytetrahydro-2H-pyran4-yl)ethynyl)-N-(4-(methoxymethyl)phenyl)-7-(1-methylcyclopropyl)-7H-pyrrolo[2,3-d]pyrimidine-5-carboxamide] | 80
